According to patent publication US7217808B2, “RFRP-3 and DNA thereof” (Takeda Pharmaceutical Company, Ltd., priority 2001, dated 2007):

Experiments:
[1] = molecular target: T1, rOT7T022L (Rattus norvegicus, UniProt Q9EP86); assay: Cytosensor acidification rate of rOT7T022L receptor-expressing CHO cells; type: cell-based; details: peptide exposure 7 min 2 sec
T1 construct: expressed in transfected cells; host or cells: CHO dhfr- cells (clone CHO-rOT7T022L)
Source text: The rOT7T022L receptor-expressing CHO cells obtained in (2) in Reference Example 7 were sown in cytosensor capsules at 2.7×10^5 cells/capsule. After overnight culture, the capsules were mounted in the work station of a cytosensor. The assay medium (0.1% bovine serum albumin-containing low buffered RPMI1640 medium) positioned in the flow route of the cytosensor was supplied to the cells under pump ON (80 sec)/pump OFF (40 sec) cycles. In each cycle, the change ratio of extracellular pH for 30 sec starting from 8 sec after the stop of the pump was calculated as acidification rate. The time course of acidification rate was monitored. When this rate began to show stable values, the flow route was shifted to thereby expose individual peptide to the cells for 7 min and 2 sec. The values of acidification rate in individual wells were normalized taking the values for the 3 cycles immediately before the peptide exposure as 100%.

[2] = molecular target: T2, human-type OT7T022 (Homo sapiens, UniProt Q9GZQ6); assay: Binding inhibition of 125I-Tyr-hRFRP-3(8) to membrane fraction from human-type OT7T022-expressing CHO cells; details: room temperature 1.5 hr
T2 construct: expressed in transfected cells; host or cells: CHO cells
T2 sequence (Q9GZQ6 whole entry): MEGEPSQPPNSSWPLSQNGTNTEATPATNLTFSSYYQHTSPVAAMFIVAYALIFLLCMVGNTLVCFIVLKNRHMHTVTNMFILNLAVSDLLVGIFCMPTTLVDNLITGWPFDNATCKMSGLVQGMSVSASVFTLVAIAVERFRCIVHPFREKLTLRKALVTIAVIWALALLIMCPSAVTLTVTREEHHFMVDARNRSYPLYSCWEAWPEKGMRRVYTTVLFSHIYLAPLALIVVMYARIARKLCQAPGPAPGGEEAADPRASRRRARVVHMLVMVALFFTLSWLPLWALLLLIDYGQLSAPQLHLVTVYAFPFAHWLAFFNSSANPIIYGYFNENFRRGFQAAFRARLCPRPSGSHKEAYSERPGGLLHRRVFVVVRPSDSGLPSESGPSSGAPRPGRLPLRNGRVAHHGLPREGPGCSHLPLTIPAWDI
Protocol: With this buffer, the membrane fraction from human-type OT7T022-expressing CHO cells was diluted to give a concentration of 1 μg/25 μl. […] Sample solutions prepared, NSB and the assay buffer were dispensed into polypropylene 96-well plates in quadruplicate as total 50 μl/well. […] Twenty-five microliter of the membrane fraction solution from human-type OT7T022-expressing CHO cells was added thereto, agitated with a plate mixer and incubated at room temperature for 1.5 hr. Using a cell harvester for 96-well plates, the contents of each well were adsorbed onto a filter unit (GF/C, treated with polyethylene imine) pre-moisturized with washing buffer (50 mM Tris-HCl, pH 7.5). After washing 5 times with the washing buffer, the adsorbate was dried thoroughly. The lower part of the filter unit was sealed. Then, 50 μl of liquid scintillator was added to each well and the upper part of the filter unit was sealed. Radioactivity was measured with a Top Count (Packard), and data were analyzed in triplicate.

[3] = system: adult male Wistar rats; assay: Plasma pituitary hormone levels after administration into the third ventricle; type: in vivo, rat; details: 10 mnol into the third ventricle; for plasma prolactin levels: vs PBS control
Protocol: Effects of the administration of the peptide represented by SEQ ID NO: 39 into the third ventricle upon pituitary hormone levels were examined. Briefly, adult male Wistar rats (body weight 290–350 g at the time of surgery) were anesthetized by intraperitoneal administration of 50 mg/kg pentobarbital and fixed in a stereotaxic apparatus for rat brain. The incisor bar was set 3.3 mm below the interaural line. The skull surface was exposed, and a hole was drilled in the skull with a dental drill in order to implant a guide cannula Further, an anchor screw was embedded at one place around the hole. A stainless guide cannula AG-12 (inside dia. 0.4 mm, outside dia. 0.5 mm; Eicom) was inserted so that its tip is located above the third ventricle. The stereotaxic coordinates were set as follows according to the atlas of Paxinos and Watson (1998): AP: +7.2 mm (from the interaural line), L: 0.0 mm, H: +2.0 mm (from the interaural line). The guide cannula was fixed onto the skull with instant glue, dental cement and the anchor screw. A stainless dummy cannula AD-12 (outside dia. 0.35 mm; Eicom) was inserted into the guide cannula and fixed with a cap nut (Eicom). After the surgery, the rats were bred separately in individual cages for more than one week to allow recovery.
The day before the experiment, the rats that had undergone the above surgery were anesthetized by intraperitoneal administration of 50 mg/kg pentobarbital and fixed on anatomical pads in face-up position. Then, a catheter (SP35; Natsume Seisakusho) was inserted into the right jugular vein. The next day, 400 μl of blood was taken from the jugular vein. In order to prevent blood coagulation, 20 μl of physiological saline containing 200 units/ml heparin was put in advance in the injection syringe. The cap nut and the dummy cannula installed on the rat skull were removed. Instead of them, a stainless microinjection cannula AMI13 (inside dia. 0.17 mm, outside dia. 0.35 mm; Eicom) connected with a Teflon tube (length 50 cm, inside dia. 0.1 mm, outside dia. 0.4 mm; Eicom) was inserted into the guide cannula. The length of the microinjection cannula was adjusted in advance so that 1 mm of its tip is exposed from the guide cannula. One end of the Teflon tube was connected with a microsyringe pump. Then, a total 10 μl of PBS alone or PBS containing the peptide represented by SEQ ID NO: 39 was injected into the third ventricle at a flow rate of 5 μl/min. One minute after the completion of the injection, the microinjection cannula was removed, and a dummy cannula was fixed again with a cap nut. A 400 μl blood sample was taken from the cannula inserted into the jugular vein immediately before the start of the intraventricular administration and at 10, 20, 30, 40 and 60 min after the start of the intraventricular administration. The collected blood was centrifuged at 5,000 rpm for 10 min in a high-speed refrigerated microcentrifuge (MR-150; Tomy Seiko) to recover the supernatant (plasma). The prolactin levels in the plasma were measured by radioimmunoassay.
The results are expressed as mean±S.E.M. Whether there is a significant difference between the group to which PBS containing the peptide represented by SEQ ID NO: 39 was administered and the control group to which PBS alone was administered was tested by Student's t-test. Differences were assessed with two-sided tests, and significance level 5% or below was judged statistically significant.

[4] = molecular target: T3, Human OT7T022 receptor (Homo sapiens, UniProt Q9GZQ6); assay: Effect of pertussis toxin upon activation of human OT7T022 receptor (cAMP production inhibition); type: cell-based; details: 0.1 μM peptide, 1 μM forskolin, 100 ng/ml pertussis toxin overnight
T3 construct: expressed in transfected cells; host or cells: CHO cells
T3 sequence (Q9GZQ6 whole entry): as above
Protocol: The human OT7T022 receptor-expressing CHO cells obtained in Example A8 were plated in 24-well plates at 1×10^5 cells/well and cultured overnight. Then, the medium was changed for 100 ng/ml pertussis toxin (Sigma)-containing medium or a control medium, and the cells were cultured overnight. The cells were washed with Hanks' buffer (HBSS) supplemented with 0.05% BSA and 0.2 mM IBMX and then pre-incubated in the same buffer at 37° C., for 30 min. Subsequently, the buffer was exchanged for HBSS supplemented with 0.05% BSA and 0.2 mM IBMX, HBSS supplemented with 1 μM forskolin alone, or HBSS supplemented with 1 μM forskolin and a peptide at various concentrations, and the cells were incubated at 37° C. for 30 min. After the incubation, the buffer was exchanged for HBSS supplemented with 0.05% BSA and 0.2 mM IBMX (black column), this buffer supplemented with 1 μM forskolin alone (white column), or this buffer supplemented with 1 μM forskolin and 0.1 μM RFRP-1-12 (peptide having the amino acid sequence which is from position 81 (Met) to position 92 (Phe) of SEQ ID NO: 1) (column with slant lines), and the cells were incubated at 37° C. for 30 min. After the incubation, intracellular cAMP was extracted and determined for each well according to the protocol attached to the cAMP EIA Kit (Amersham). […]

T1 sequence (Q9EP86 whole entry): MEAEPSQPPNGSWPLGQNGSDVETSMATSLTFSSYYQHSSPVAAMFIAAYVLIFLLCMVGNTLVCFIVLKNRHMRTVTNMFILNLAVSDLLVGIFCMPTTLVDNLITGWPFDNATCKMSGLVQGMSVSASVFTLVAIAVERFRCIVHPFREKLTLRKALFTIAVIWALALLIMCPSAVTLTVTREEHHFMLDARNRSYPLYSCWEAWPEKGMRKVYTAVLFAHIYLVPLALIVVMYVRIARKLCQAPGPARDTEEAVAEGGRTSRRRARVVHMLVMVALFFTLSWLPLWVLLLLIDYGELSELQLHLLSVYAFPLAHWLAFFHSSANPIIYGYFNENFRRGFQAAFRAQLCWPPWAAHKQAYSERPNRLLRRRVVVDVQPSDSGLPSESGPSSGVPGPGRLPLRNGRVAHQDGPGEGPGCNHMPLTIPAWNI

Compound	reactivity of rOT7T022L receptor-expressing CHO cells (acidification rate) [1]	IC50 [2] [nM]	ACTH level in the plasma [3]	GH level in the plasma [3]	LH level in the plasma [3]	TSH level in the plasma [3]	plasma prolactin levels ([3]; 60 min after administration)	plasma prolactin levels ([3]; at 20, 30 and 40 min after administration)	plasma prolactin levels ([3]; from 10 min after administration)	cAMP production inhibitory activity in cells treated with pertussis toxin [4]
CC(C)C[C@H](NC(=O)[C@H](CC(N)=O)NC(=O)[C@@H]1CCCN1C(=O)[C@@H](N)C(C)C)C(=O)N1CCC[C@H]1C(=O)N[C@@H](CCC(N)=O)C(=O)N[C@@H](CCCNC(=N)N)C(=O)N[C@@H](Cc1ccccc1)C(N)=O	reactive	–	–	–	–	–	–	–	–	–
H-ATANLPLRSGRNMEVSLVRRVPNLPQRF-NH2 [hRFRP-3 (28)]	–	1.6	–	–	–	–	–	–	–	–
H-MPHSFANLPLRF-NH2	reactive	–	did not show significant changes	did not show significant changes	did not show significant changes	did not show significant changes	significant difference was observed	increased significantly	increasing tendency	disappeared
